Experimental data published in patent EP3099166B1, “METHOD TO CONTROL ST[…] SEPTORIA TRITICI” (priority 2014, dated 2015).
Where two headings read alike, the source gives them in different places.

Legend:
[1] = system: Septoria tritici; test: Glasshouse trial on wheat, curative (K4) application (Example 2); format: in vivo; conditions: for % Efficacy: wheat, R12 isolates, G143A, 4 weeks after application
Experimental: (§1) The trials were conducted under glasshouse conditions. Wheat was planted and grown under standard conditions with adequate supply of water and nutrients. At BBCH 11, an application of the test compounds was made. Fungicides were applied curatively 4 days after inoculation (K4) with different rates. The Septoria isolates used for inoculation were classified "R12" according their cyp51 haplotype (less sensitive to triazoles due to V136A, 1381V, Y461S/H and S524T mutation in cyp51 gene) and resistant to strobilurins due to G143A mutation in cytochrome b gene.
(§2) Disease levels were assessed by evaluating the average percentage of diseased leaf area 4 weeks after application.
(§3) The disease levels were converted into efficacies. An efficacy of 0 means that the level of the treated plants corresponds to that of the untreated control plants; an efficacy of 100 means that the treated plants had no disease at all.

[2] = system: Septoria tritici; test: Glasshouse trial on wheat, preventive (P1) or curative (K4) application (Example 1); format: in vivo; conditions: Zymoseptoria tritici
Experimental: as §1, with “applied preventively (1 day before inoculation, P1) or” for “applied”, “curatively (4” for “curatively 4”, “after inoculation, K4) and” for “after inoculation (K4)”, “V136A, I381V,” for “V136A, 1381V,”
as §2, §3

[3] = Zymoseptoria tritici, 672 h, read-out: % Efficacy

Structure (SMILES): OC(Cc1ccccc1Cl)(Cn1nc[nH]c1=S)C1(Cl)CC1 (stereo not drawn) [Prothioconazole, prothioconazole]
- Emax at 67 g/ha [1, 3]: 7%
- Percent disease control efficacy at 67 g/ha ([2]; 672 h, read-out: % Efficacy, 67 g a.i./ha, curative (K4), R12 isolates, G143A, 4 weeks after application): 7%
- Percent disease control efficacy at 67 g/ha ([2]; 672 h, read-out: % Efficacy, 67 g a.i./ha, preventative (P1), R12 isolates, G143A, 4 weeks after application): 10%

Structure (SMILES): CO/C=C(/C(=O)OC)c1ccccc1COc1cccc(C(F)(F)F)n1 [Picoxystrobin, picoxystrobin]
- % Efficacy ([1]; 83 g a.i./ha, curative (K4, 4 days after inoculation)): 0%
- % Efficacy ([1]; 250 g a.i./ha, curative (K4)): 7%

Structure (SMILES): COC(=O)N(OC)c1ccccc1COc1ccn(-c2ccc(Cl)cc2)n1 [Pyraclostrobin, pyraclostrobin]
- Percent disease control efficacy at 250 g/ha ([2]; 672 h, read-out: % Efficacy, 250 g a.i./ha, preventative (P1), R12 isolates, G143A, 4 weeks after application): 51%
- Percent disease control efficacy at 83 g/ha ([2]; read-out: % Efficacy, 83 g a.i./ha, curative (K4, 4 days after inoculation), R12 isolates, G143A, assessed 4 weeks after application): 10%

Structure (SMILES): CCCC1COC(Cn2cncn2)(c2ccc(Cl)cc2Cl)O1 (stereo not drawn) [Propiconazole, propiconazole]
- Emax at 33 g/ha [1, 3]: 7%
- Emax at 125 g/ha [1, 3]: 20%
- Percent disease control efficacy at 33 g/ha ([2]; 672 h, read-out: % Efficacy, 33 g a.i./ha, curative (K4), R12 isolates, G143A, 4 weeks after application): 7%
- Percent disease control efficacy at 33 g/ha ([2]; 672 h, read-out: % Efficacy, 33 g a.i./ha, preventative (P1), R12 isolates, G143A, 4 weeks after application): 10%
- Percent disease control efficacy at 125 g/ha ([2]; 672 h, read-out: % Efficacy, 125 g a.i./ha, preventative (P1), R12 isolates, G143A, 4 weeks after application): 40%
